Assay results taken from patent US9957271B2, “Substituted bicyclic aza-heterocycles and analogues as sirtuin modulators” (GlaxoSmithKline, LLC, priority 2012, dated 2018).
Where two headings read alike, the source gives them in different places.

Target: T1, SIRT1 (Homo sapiens, UniProt Q96EB6)
T1 sequence (Q96EB6 1-747): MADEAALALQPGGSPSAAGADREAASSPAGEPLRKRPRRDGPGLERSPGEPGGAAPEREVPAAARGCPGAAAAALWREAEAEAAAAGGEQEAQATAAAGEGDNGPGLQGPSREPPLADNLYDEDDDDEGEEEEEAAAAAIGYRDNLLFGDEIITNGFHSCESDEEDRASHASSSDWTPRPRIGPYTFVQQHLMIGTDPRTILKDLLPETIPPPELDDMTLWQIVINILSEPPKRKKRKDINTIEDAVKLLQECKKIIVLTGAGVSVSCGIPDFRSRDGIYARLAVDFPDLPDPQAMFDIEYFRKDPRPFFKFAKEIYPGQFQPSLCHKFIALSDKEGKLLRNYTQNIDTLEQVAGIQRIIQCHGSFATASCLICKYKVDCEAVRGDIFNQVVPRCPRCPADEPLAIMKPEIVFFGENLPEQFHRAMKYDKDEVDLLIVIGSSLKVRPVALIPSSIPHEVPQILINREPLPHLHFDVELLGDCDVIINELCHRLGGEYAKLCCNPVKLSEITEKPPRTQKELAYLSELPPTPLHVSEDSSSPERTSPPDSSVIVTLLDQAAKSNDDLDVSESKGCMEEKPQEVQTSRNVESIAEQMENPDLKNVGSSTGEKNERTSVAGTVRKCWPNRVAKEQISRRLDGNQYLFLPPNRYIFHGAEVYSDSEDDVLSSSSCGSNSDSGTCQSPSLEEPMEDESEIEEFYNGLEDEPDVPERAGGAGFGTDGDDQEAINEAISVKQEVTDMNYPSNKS
Experiment: TAMRA based mass spectrometry assay of SIRT1 activity
Type: biochemical
Details: for Emax: read-out: TAMRA % Fold Act
Method in brief: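 Recombinant N-terminal His-tagged human SIRT1 (10 nM, E. coli) incubated 25 min at 25 °C with 0.5 μM 5TMR-labelled p53-derived acetyl-peptide and 120 μM βNAD+ in Tris-acetate pH 8 buffer with DTT and 0.05% BSA, compound at varying concentrations. Stopped with formic acid; deacetylated peptide or OAADPR measured by mass spectrometry relative to DMSO controls.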

[1] = concentration of test compound giving 150% activation of SIRT1, TAMRA peptide substrate
[2] = percent maximum fold activation of SIRT1, TAMRA peptide substrate
[3] = TAMRA assay, concentration giving 150% activation of SIRT1
[4] = TAMRA assay, percent maximum fold activation
[5] = TAMRA peptide substrate, concentration giving 150% activation of SIRT1
[6] = TAMRA peptide substrate, percent maximum fold activation

| Compound | TAMRA EC1.5 (μM) [1] | Emax [2] [%] | TAMRA EC1.5 (μM) [3] | Emax [4] [%] | further results |
| --- | --- | --- | --- | --- | --- |
| O=C(Nc1cnc2ccc(-c3ccccc3C(F)(F)F)nn12)c1ccccn1 [Compound 85] | A (EC1.5<1 μM) | ≥ 350 |  |  |  |
| O=C(Nc1ccnc(OCC(O)CO)c1)c1cnc2ccc(-c3ccccc3Cl)nn12 (centres unmarked) [Compound 283] |  |  | A (EC1.5<1 μM) | < 350 |  |
| Cc1cc(NC(=O)c2c(C)nn3ccc(-c4ccccc4C(F)(F)F)nc23)cc(C)n1 [Compound 648] |  |  | A (EC1.5<1 μM) | ≥ 350 |  |
| Cc1cccc(NC(=O)c2cnc3ccc(-c4cccc(OCC(O)CO)c4)nn23)n1 (centres unmarked) [Compound 416] |  |  |  |  | TAMRA EC1.5 [5]: A (EC1.5<1 μM); Emax [6]: ≥ 350% |
| Cc1cc2ncc(C(=O)Nc3cccc(N4CCOCC4)n3)n2nc1-c1ccccc1C(F)(F)F [Compound 209] |  |  | A (EC1.5<1 μM) | ≥ 350 |  |
| O=C(Nc1cnn2ccc(-c3ccccc3C(F)(F)F)nc12)c1cncc(OC[C@@H](O)CO)n1 [Compound 783] |  |  | A (EC1.5<1 μM) | ≥ 350 |  |
| CCOc1ccc(NC(=O)c2c(C)nc3ccc(-c4ccccc4C(F)(F)F)nn23)nn1 [Compound 666] |  |  | A (EC1.5<1 μM) | ≥ 350 |  |
| CC(C)c1csc(C(=O)Nc2cnn3ccc(-c4ccccc4OC(F)(F)F)nc23)n1 [Compound 771] |  |  | A (EC1.5<1 μM) | ≥ 350 |  |
| O=C(Nc1nc(CN2CCOCC2)cs1)c1cnc2ccc(-c3cc(F)cc(F)c3)nn12 [Compound 46] | B (EC1.5 1-25 μM) | < 350 |  |  |  |
| Cc1ncccc1NC(=O)c1c(C)nn2ccc(-c3ccccc3C(F)(F)F)nc12 [Compound 699] |  |  | A (EC1.5<1 μM) | < 350 |  |
| Cc1nc2c(N3CCOCC3)cc(-c3ccccc3C(F)(F)F)nn2c1C(=O)Nc1cccnn1 [Compound 738, 2-methyl-8-morpholino-N-(pyridazin-3-yl)-6-(2-(trifluoromethyl)phenyl)imidazo[1,2-b]pyridazine-3-carboxamide] |  |  | A (EC1.5<1 μM) | ≥ 350 |  |
| O=C(Nc1cccc(N2CCCC2)n1)c1cnc2ccc(-c3ccccc3C(F)F)nn12 [Compound 37] | A (EC1.5<1 μM) | ≥ 350 |  |  |  |
| O=C(Nc1cnccn1)c1cnc2ccc(-c3c(F)cccc3F)nn12 [Compound 171] | C (EC1.5>25 μM) | < 350 |  |  |  |
| O=C(Nc1ccccn1)c1cnc2ccc(-c3ccccc3F)nn12 [Compound 137] | B (EC1.5 1-25 μM) | < 350 |  |  |  |
| N#Cc1ccccc1-c1ccc2ncc(C(=O)Nc3cccc(N4CCOCC4)n3)n2n1 [Compound 191] | A (EC1.5<1 μM) | < 350 |  |  |  |
| O=C(Nc1cc(O)ncn1)c1cnn2ccc(-c3ccccc3C(F)(F)F)nc12 [Compound 813] |  |  | A (EC1.5<1 μM) | ≥ 350 |  |
| Cc1c(-c2ccccc2Cl)nn2c(C(=O)Nc3cccc(N4CCOCC4)n3)cnc2c1C [Compound 229] |  |  | A (EC1.5<1 μM) | ≥ 350 |  |
| O=C(Nc1ccccn1)c1cnc2ccc(-c3ccc(F)c(F)c3F)nn12 [Compound 129] | C (EC1.5>25 μM) | < 350 |  |  |  |
| Cc1nc2ccc(-c3ccccc3OC[C@H](O)CO)nn2c1C(=O)Nc1ccc(F)cn1 [Compound 819] |  |  | A (EC1.5<1 μM) | ≥ 350 |  |
| O=C(Nc1cnc2ccc(-c3ccccc3C(F)(F)F)nn12)c1ccnc(N2CCCC2)c1 [Compound 124] | A (EC1.5<1 μM) | ≥ 350 |  |  |  |
| Cc1nn2ccc(-c3ccccc3C(F)(F)F)nc2c1C(=O)Nc1ccncn1 [Compound 547] |  |  |  |  | TAMRA EC1.5 [5]: A (EC1.5<1 μM); Emax [6]: ≥ 350% |
| Cc1cc2ncc(NC(=O)c3ncccn3)n2nc1-c1ccccc1C(F)(F)F [Compound 444] |  |  |  |  | TAMRA EC1.5 [5]: A (EC1.5<1 μM); Emax [6]: ≥ 350% |
| Cc1cc(NC(=O)c2c(C)nn3ccc(-c4ccccc4C(F)(F)F)nc23)nc(C)n1 [Compound 787] |  |  | A (EC1.5<1 μM) | ≥ 350 |  |
| O=C(Nc1cccnc1)c1cnc2ccc(-c3ccccc3F)nn12 [Compound 138] | B (EC1.5 1-25 μM) | < 350 |  |  |  |
| Cc1cc2ncc(NC(=O)c3ccccn3)n2nc1-c1ccccc1C(F)(F)F [Compound 441, N-(7-methyl-6-(2-(trifluoromethyl)phenyl)imidazo[1,2-b]pyridazin-3-yl)picolinamide] |  |  |  |  | TAMRA EC1.5 [5]: A (EC1.5<1 μM); Emax [6]: ≥ 350% |

| Compound | TAMRA EC1.5 (μM) [1] | Emax [2] [%] | TAMRA EC1.5 (μM) [3] | Emax [4] [%] | further results |
| --- | --- | --- | --- | --- | --- |
| O=C(Nc1cnc2ccc(-c3ccccc3C(F)(F)F)nn12)c1ccc(CN2CCOCC2)nc1 [Compound 147] | B (EC1.5 1-25 μM) | < 350 |  |  |  |
| Cc1nc(C(=O)Nc2cnc3ccc(-c4ccccc4Cl)nn23)cs1 [Compound 292] |  |  | A (EC1.5<1 μM) | ≥ 350 |  |
| COc1nccc(NC(=O)c2cnn3ccc(-c4ccccc4C(F)(F)F)nc23)n1 [Compound 519] |  |  |  |  | TAMRA EC1.5 [5]: A (EC1.5<1 μM); Emax [6]: ≥ 350% |
| Cc1ncccc1-c1ccc2ncc(C(=O)Nc3ccnc(N4CCC4)c3)n2n1 [Compound 63] | C (EC1.5>25 μM) | < 350 |  |  |  |
| O=C(Nc1ccccn1)c1cnc2ccc(-c3cccc(OCC(O)CO)c3)nn12 (centres unmarked) [Compound 373] |  |  | B (EC1.5 1-25 μM) | < 350 |  |
| Cc1nc(NC(=O)c2cnc3c(C)cc(-c4ccccc4C(F)(F)F)nn23)sc1C [Compound 588] |  |  |  |  | TAMRA EC1.5 [5]: B (EC1.5 1-25 μM); Emax [6]: < 350% |
| O=C(Nc1cccc(CN2CCOCC2)n1)c1cnc2ccc(-c3cc(F)ccc3F)nn12 [Compound 30] | B (EC1.5 1-25 μM) | < 350 |  |  |  |
| O=C(Nc1ccc(N2CCOCC2)cn1)c1cnc2ccc(-c3ccccc3C(F)(F)F)nn12 [Compound 199] |  |  | A (EC1.5<1 μM) | ≥ 350 |  |
| O=C(Nc1cncc(N2CCOCC2)c1)c1cnc2ccc(-c3ccccc3C(F)(F)F)nn12 [Compound 217] |  |  | A (EC1.5<1 μM) | ≥ 350 |  |
| O=C(Nc1ccnc(N2CCOCC2)c1)c1cnc2ccc(-c3ccccc3C(F)F)nn12 [Compound 39] | A (EC1.5<1 μM) | ≥ 350 |  |  |  |
| Cc1cc(C)nc(C(=O)Nc2cnc3c(C)c(C)c(-c4ccccc4C(F)(F)F)nn23)n1 [Compound 420] |  |  |  |  | TAMRA EC1.5 [5]: A (EC1.5<1 μM); Emax [6]: ≥ 350% |
| Cc1cnc(NC(=O)c2cnn3ccc(-c4ccccc4OC(F)(F)F)nc23)cn1 [Compound 623] |  |  | A (EC1.5<1 μM) | ≥ 350 |  |
| Cc1cnc(NC(=O)c2cnn3ccc(-c4ccccc4C(F)(F)F)nc23)cn1 [Compound 723, N-(5-methylpyrazin-2-yl)-5-(2-(trifluoromethyl)phenyl)pyrazolo[1,5-a]pyrimidine-3-carboxamide] |  |  | A (EC1.5<1 μM) | ≥ 350 |  |
| CS(=O)(=O)c1ccccc1-c1ccc2ncc(C(=O)Nc3ccccn3)n2n1 [Compound 188] | C (EC1.5>25 μM) | < 350 |  |  |  |
| O=C(Nc1cnn2ccc(-c3ccccc3OC(F)(F)F)nc12)c1nccs1 [Compound 781] |  |  | B (EC1.5 1-25 μM) | ≥ 350 |  |
| Cc1cnc(NC(=O)c2cnc3ccc(-c4ccccc4C(F)(F)F)nn23)s1 [Compound 109] | A (EC1.5<1 μM) | ≥ 350 |  |  |  |
| CCOc1ccc(NC(=O)c2c(C)nc3ccc(-c4cccc(F)c4)nn23)nn1 [Compound 762] |  |  | B (EC1.5 1-25 μM) | < 350 |  |
| O=C(Nc1ccccn1)c1cnc2ccc(-c3cccc(Cl)c3F)nn12 [Compound 142] | B (EC1.5 1-25 μM) | < 350 |  |  |  |
| O=C(Nc1ccncc1)c1cnc2ccc(-c3ccccc3F)nn12 [Compound 136] | B (EC1.5 1-25 μM) | < 350 |  |  |  |
| O=C(Nc1cccc(N2CC3(CCO3)C2)n1)c1cnc2ccc(-c3ccccc3C(F)(F)F)nn12 [Compound 538] |  |  |  |  | TAMRA EC1.5 [5]: A (EC1.5<1 μM); Emax [6]: ≥ 350% |
| Cc1ccc(NC(=O)c2cnn3ccc(-c4ccccc4OC(F)(F)F)nc23)c(C)n1 [Compound 625] |  |  | B (EC1.5 1-25 μM) | < 350 |  |
| O=C(Nc1cnc2ccc(-c3ccccc3F)nn12)c1cccc(N2CCOCC2)n1 [Compound 301] |  |  | A (EC1.5<1 μM) | ≥ 350 |  |
| O=C(Nc1ccc(N2CCOCC2)nc1)c1cnc2ccc(-c3ccccc3C(F)(F)F)nn12 [Compound 216] |  |  | B (EC1.5 1-25 μM) | ≥ 350 |  |
| O=C(Nc1cccc(OCC(F)(F)F)n1)c1cnc2ccc(-c3ccccc3C(F)(F)F)nn12 [Compound 264] |  |  | B (EC1.5 1-25 μM) | ≥ 350 |  |
